According to US20230310445A1, “LOX ENZYME INHIBITING METHODS AND COMPOSITIONS” (ANOVIA BIOSCIENCES, INC., priority 2020, published 2023):

Legend:
[1] = target: T1, Recombinant human LOXL2 (lysyl oxidase like 2) (Homo sapiens, UniProt Q9Y4K0); assay: LOXL2 inhibition assay (fluorometric, cadaverine/Amplex Red/HRP); type: biochemical; conditions: IC50 class; recombinant human LOXL2, cadaverine substrate; read-out: Activity Range LOXL2
T1 construct: purchased R&D systems
T1 sequence (Q9Y4K0 26-774): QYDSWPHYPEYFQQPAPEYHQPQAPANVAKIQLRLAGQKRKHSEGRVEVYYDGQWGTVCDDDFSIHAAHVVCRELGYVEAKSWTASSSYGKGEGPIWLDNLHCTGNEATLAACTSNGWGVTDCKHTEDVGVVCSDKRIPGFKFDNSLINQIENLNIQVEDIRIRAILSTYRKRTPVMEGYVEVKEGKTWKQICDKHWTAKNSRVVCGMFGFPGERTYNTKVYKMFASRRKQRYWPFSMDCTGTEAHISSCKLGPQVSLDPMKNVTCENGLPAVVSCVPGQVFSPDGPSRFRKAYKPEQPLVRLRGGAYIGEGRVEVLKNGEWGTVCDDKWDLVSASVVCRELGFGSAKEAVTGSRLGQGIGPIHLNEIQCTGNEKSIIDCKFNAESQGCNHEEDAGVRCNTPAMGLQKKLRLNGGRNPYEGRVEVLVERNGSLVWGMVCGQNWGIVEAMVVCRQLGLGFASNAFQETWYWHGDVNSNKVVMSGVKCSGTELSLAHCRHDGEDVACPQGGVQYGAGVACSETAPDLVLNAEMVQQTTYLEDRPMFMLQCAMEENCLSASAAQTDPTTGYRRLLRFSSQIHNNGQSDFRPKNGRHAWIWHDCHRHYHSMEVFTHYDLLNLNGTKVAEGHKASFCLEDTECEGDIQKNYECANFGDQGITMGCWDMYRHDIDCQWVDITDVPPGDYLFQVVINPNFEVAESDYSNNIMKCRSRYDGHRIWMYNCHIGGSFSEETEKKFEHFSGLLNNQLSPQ
Method in brief: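 Both enzymes assayed in 1.2 M urea, 50 mM sodium borate pH 8.0, 10 mM CaCl, with 30 min compound–enzyme preincubation at 37° C before cadaverine/Amplex Red/HRP addition. Fluorescence followed 60 min at 37° C; linear-slope rates, background-subtracted, as % of DMSO control, fitted by 4-parameter variable-slope curve (bottom fixed at 0).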

[2] = target: T2, Bovine lysyl oxidase (LOX) (Bos taurus, UniProt P33072); assay: LOX inhibition assay (fluorometric, cadaverine/Amplex Red/HRP); type: biochemical; conditions: IC50 class; bovine tendon LOX, cadaverine substrate; read-out: Activity Range LOX
T2 construct: from tissue; host or cells: adult bovine tendon
T2 sequence (P33072 170-418): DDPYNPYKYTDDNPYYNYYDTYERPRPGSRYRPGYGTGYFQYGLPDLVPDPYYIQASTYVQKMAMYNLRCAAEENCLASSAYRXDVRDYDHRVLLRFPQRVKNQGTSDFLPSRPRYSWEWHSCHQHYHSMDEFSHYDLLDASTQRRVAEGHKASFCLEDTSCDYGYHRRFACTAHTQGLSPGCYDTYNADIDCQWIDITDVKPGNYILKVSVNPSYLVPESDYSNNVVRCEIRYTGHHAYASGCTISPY
Method in brief: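 Bovine tendon-extracted LOX was preincubated 30 min at 37 °C with compound. Cadaverine/Amplex Red/HRP was then added and fluorescence (ex530/em600) monitored for 120 min at 37 °C. Progress-curve slopes, background-subtracted against no-protein wells, were normalised to DMSO controls and fitted with a four-parameter variable-slope dose-response model.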

Structure (SMILES)	IC50 [1] [nM]	IC50 [2] [nM]
NCc1cccc(S(=O)(=O)[C@H]2C[C@@H](C(=O)N3CCS(=O)(=O)CC3)CN(C3CCCCC3)C2)c1 (racemic) [Example 143, cis-(5-((3-(Aminomethyl)phenyl)sulfonyl)-1-cyclohexylpiperidin-3-yl)(1,1-dioxidothiomorpholino)methanone 2,2,2-trifluoroacetate]	≤ 500	> 30000
NCc1ccnc(S(=O)(=O)N2C[C@@H](C(=O)N3CCS(=O)(=O)CC3)C[C@@H](N3CCCCC3=O)C2)c1 (racemic) [Example 187, cis-1′-((4-(Aminomethyl)pyridin-2-yl)sulfonyl)-5′-(1,1-dioxidothiomorpholine-4-carbonyl)-[1,3′-bipiperidin]-2-one 2,2,2-trifluoroacetate]	≤ 500	1000 to 30000
NCc1ccc(S(=O)(=O)N2C[C@@H](C(=O)N3CCNCC3)C[C@@H](c3ccccc3)C2)s1 (racemic) [Example 15, cis-(1-((5-(Aminomethyl)thiophen-2-yl)sulfonyl)-5-phenylpiperidin-3-yl)(piperazin-1-yl)methanone 2,2,2-trifluoroacetate]	≤ 500	500 to 1000
NCc1cccc(O[C@H]2C[C@H](c3ccccc3)CN(C(=O)N3CCS(=O)(=O)CC3)C2)c1 (racemic) [Example 82, trans-(3-(3-(Aminomethyl)phenoxy)-5-phenylpiperidin-1-yl)(1,1-dioxidothiomorpholino)methanone]	1000 to 30000	> 30000
CN1CCN(C(=O)[C@H]2C[C@@H](c3ccccc3)CN(S(=O)(=O)c3ccc(CN)s3)C2)CC1 (racemic) [Example 17, cis-(1-((5-(Aminomethyl)thiophen-2-yl)sulfonyl)-5-phenylpiperidin-3-yl)(4-methylpiperazin-1-yl)methanone 2,2,2-trifluoroacetate]	≤ 500	500 to 1000
NCc1cnc(S(=O)(=O)N2C[C@H](C(=O)N3CCS(=O)(=O)CC3)C[C@@H](c3ccccc3)C2)s1 (racemic) [Example 112T, trans-(1-((5-(Aminomethyl)thiazol-2-yl)sulfonyl)-5-phenylpiperidin-3-yl)(1,1-dioxidothiomorpholino)methanone 2,2,2-trifluoroacetate]	500 to 1000	1000 to 30000
CS(=O)(=O)N1CCN(C(=O)[C@H]2C[C@@H](c3ccccc3)CN(S(=O)(=O)c3ccc(CN)s3)C2)CC1 (racemic) [Example 76]	≤ 500	≤ 500
NCc1cccc(S(=O)(=O)N2C[C@H](C(=O)N3CCOCC3)C[C@@H](C(F)(F)F)C2)c1 (racemic) [Example 110]	1000 to 30000	> 30000
CS(=O)(=O)N1CCN(C(=O)[C@H]2C[C@@H](N3CCCCC3)CN(S(=O)(=O)c3cc(CN)ccn3)C2)CC1 (racemic) [Example 149, cis-(1′-((4-(Aminomethyl)pyridin-2-yl)sulfonyl)-[1,3′-bipiperidin]-5′-yl)(4-(methylsulfonyl)piperazin-1-yl)methanone 2,2,2-trifluoroacetate]	500 to 1000	> 30000
CS(=O)(=O)N1C[C@@H](Oc2cc(CN)ccc2F)C[C@H](c2ccccc2F)C1 (racemic) [Example 93, trans-(4-Fluoro-3-((-5-(2-fluorophenyl)-1-(methylsulfonyl)piperidin-3-yl)oxy)phenyl)methanamine 2,2,2-trifluoroacetate]	≤ 500	> 30000
CS(=O)(=O)[C@@H]1C[C@H](Oc2ccc(CN)cc2)CN(c2ccccc2)C1 (racemic) [Example 20, cis-(4-((-5-(Methylsulfonyl)-1-phenylpiperidin-3-yl)oxy)phenyl)methanamine2,2,2-trifluoroacetate]	1000 to 30000	1000 to 30000
NCc1cc(S(=O)(=O)N2C[C@@H](C(=O)N3CCS(=O)(=O)CC3)C[C@@H](c3ccccc3)C2)ccn1 (racemic) [Example 130, cis-(1-((2-(Aminomethyl)pyridin-4-yl)sulfonyl)-5-phenylpiperidin-3-yl)(1,1-dioxidothiomorpholino)methanone 2,2,2-trifluoroacetate]	500 to 1000	1000 to 30000
CN(C)C(=O)[C@H]1C[C@@H](c2ccccc2)CN(S(=O)(=O)c2ccc(CN)s2)C1 (racemic) [Example 9, cis-1-((5-(Aminomethyl)thiophen-2-yl)sulfonyl)-N,N-dimethyl-5-phenylpiperidine-3-carboxamide 2,2,2-trifluoroacetate]	≤ 500	500 to 1000
CS(=O)(=O)N1CCN(C(=O)[C@H]2C[C@@H](c3ccccc3)CN(S(=O)(=O)c3cccc(CN)n3)C2)CC1 (racemic) [Example 116]	1000 to 30000	> 30000
CS(=O)(=O)N1CCN(C(=O)[C@@H]2C[C@@H](c3ccccc3)CN(S(=O)(=O)c3cccc(CN)c3)C2)CC1 (racemic) [Example 84, trans-(1-((3-(Aminomethyl)phenyl)sulfonyl)-5-phenylpiperidin-3-yl)(4-(methylsulfonyl)piperazin-1-yl)methanone 2,2,2-trifluoroacetate]	≤ 500	1000 to 30000
CS(=O)(=O)N1C[C@H](Oc2cc(CN)ccc2F)C[C@H](c2ccccc2F)C1 (racemic) [Example 71, cis-(4-Fluoro-3-((-5-(2-fluorophenyl)-1-(methylsulfonyl)piperidin-3-yl)oxy)phenyl)methanamine 2,2,2-trifluoroacetate]	500 to 1000	> 30000
CS(=O)(=O)N1C[C@@H](c2ccccc2)C[C@@H](S(=O)(=O)c2ccc(CN)cc2)C1 (racemic) [Example 26, cis-(4-((1-(Methylsulfonyl)-5-phenylpiperidin-3-yl)sulfonyl)phenyl)methanamine 2,2,2-trifluoroacetate]	≤ 500	1000 to 30000
NCc1cc(S(=O)(=O)N2C[C@H](C(=O)N3CCS(=O)(=O)CC3)C[C@@H](c3ccccc3)C2)ccn1 (racemic) [Example 130T, trans-(1-((2-(Aminomethyl)pyridin-4-yl)sulfonyl)-5-phenylpiperidin-3-yl)(1,1-dioxidothiomorpholino)methanone 2,2,2-trifluoroacetate]	≤ 500	1000 to 30000
NCc1ccnc(S(=O)(=O)N2C[C@@H](C(=O)N3CCOCC3)C[C@@H](N3CCOCC3)C2)c1 (racemic) [Example 155, cis-(1-((4-(Aminomethyl)pyridin-2-yl)sulfonyl)-5-morpholinopiperidin-3-yl)(morpholino)methanone 2,2,2-trifluoroacetate]	500 to 1000	1000 to 30000
CC(N)c1cccc(S(=O)(=O)N2C[C@@H](C(=O)N3CCOCC3)C[C@@H](c3ccccc3)C2)c1 (mixture of isomers) [Example 102RAC, cis-(1-((3-(1-Aminoethyl)phenyl)sulfonyl)-5-phenylpiperidin-3-yl)(morpholino)methanone 2,2,2-trifluoroacetate]	> 30000	> 30000
